The record followed here is patent US7074778B2, “Asthma associated factors as targets for treating atopic allergies including asthma and related disorders” (Genaera Corporation, priority 1999, dated 2006).

≈ marks a conversion by molar mass, not a printed value. Where two headings read alike, the source gives them in different places. Where only a bound is given, the exact number is not on record here.

The conditions of data set [1]: rat, in vivo, 1 mg/kg/day. On the procedure: To determine the mechanism by which 3-aminosteroid compounds function to suppress the asthmatic response to allergen, comparative physiologic assays were carried out utilizing the extensively studied Sprague-Dawley rat model (Scaccianoce et al., (1995) Neuroendocrinology 62, 32–38; Hatzinger et al., (1996) Neuroendocrinology 64, 349–356). Animals were administered 1 mg/kg/day of either the corticosteroid Dexamethasone or Compound-B and analyzed at ten hours for corticosterone and ACTH. […] Similar results were found for ACTH levels (>100 fold) supporting the finding that Compound-B is acting by a different mechanism from dexamethasone.

Data set [2] in a line: 28 day tolerance study in Sprague-Dawley rats (weight, spleen). Type of data set: in vivo, rat. Particulars: drug administered for 28 days.
The subject of data set [3] is mitogen or antigen stimulated murine or human lymphocytes. Description: Lymphocyte aggregation assay (PHA-PMA mitogen stimulated). The following applies: Homo sapiens, Lymphocyte, 12 h, aggregates of greater than 100 cells, PHA-PMA stimulation; read-out: Aggregation Assay Minimum Effective Conc. Type of data set: cell-based. As to the method:
(§1) Immunomodulatory 3-aminosteroids (FIGS. 3–7 and Table I) were identified in vitro based on their ability to inhibit homo- or hetero-typic aggregation and subsequent proliferation of mitogen or antigen stimulated murine or human lymphocytes. Human or mouse lymphocytes were isolated from peripheral blood by Ficoll-Hypaque as described (Stoeckert et al., (1990) Exp. Hematol. 18. 1164–1170). For mitogen stimulation, 1×10^5 cells per well were plated in varying amounts of 3-aminosteroid compounds and assayed for aggregation and proliferation after twelve hours of stimulation by PHA-PMA mitogens. […] For antigen stimulation, lymphocytes were isolated from BALBc mice which had been sensitized to Aspergillus fumigatus antigen for three weeks and plated at 1×10^5 cells per well with or without 100 units of Aspergillus fulmigatus antigen. Cells were grown for three days and then scored for cellular aggregates and proliferation as described above in the presence or absence of increasing amounts of Compound-B or analogue compounds. […] Similar results were obtained in assays using antigen mediated response to compounds (not shown). […] All of the active compounds shown in Table I as well as rational modifications of these compounds as depicted in FIGS. 8–10 are embodiments of the invention

Data set [4] has the same test system. Briefly: PBMC proliferation assay (tritiated thymidine incorporation). The following applies: Homo sapiens, Lymphocyte. Type of data set: cell-based. On the procedure: as §1
Background: Dividing cells build labelled thymidine or BrdU into new DNA.

Data set [5] has as its system IL-9. Briefly: IL-9 expression in mitogen-stimulated lymphocytes (RT-PCR). Type of data set: cell-based, human. The following applies: FIG. 13. As to the method: Total cellular RNA was extracted after 24 hours from cultured PBMC, murine spleen cells and M07e cells using RNA PCR corekit (Perkin-Elmer, Foster City Calif.) according to manufacturer's instructions. One microgram of RNA from each source was denatured for five minutes at 65° C. and then reverse transcribed into cDNA using a 20 μl reaction mixture containing 50 units of MLV Reverse Transcriptase, one unit per μl RNAse inhibitor. […] oligo d(T)16 primer, 1 mM each dATP, dCTP, dGTP, dTTP, 50 mM KCl, 10 mM Tris-HCl, pH 7.0, 25 mM MgCl2. The reaction mixture was pipetted into thermocycler tubes, placed in a PCR thermal cycler and subjected to one cycle (fifteen minutes at 42° C., five minutes at 99° C. and five minutes at 4° C.). A mock reverse transcription reaction was used as a negative control. […]
Immunomodulatory 3-aminosteroids (FIGS. 3–7 and Table I) were identified in vitro based on their ability to inhibit homo- or hetero-typic aggregation and subsequent proliferation of mitogen or antigen stimulated murine or human lymphocytes. […] Cells were grown for three days and then scored for cellular aggregates and proliferation as described above in the presence or absence of increasing amounts of Compound-B or analogue compounds. […]

For data set [6], the system named is mice sensitized to antigen. Briefly: Airway hyperresponsiveness in mice sensitized to Aspergillus fumigatus antigen (APTI). Type of data set: in vivo, mouse. As to the method:
(§2) DBA2, C57BL6 or B6D2F1 mice, five to six weeks of age, were obtained from the National Cancer Institute or Jackson Laboratories. Animals were housed in high-efficiency particulate filtered air laminar flow hoods in a virus and antigen free facility and allowed free access to pelleted rodent chow and water for three to seven days prior to experimental manipulation. The animal facilities were maintained at 22° C. and the light:dark cycle is automatically controlled (10:14 hour cycle).
(§3) Phenotyping and efficacy of pretreatment. Animals either received no pretreatment or were sensitized by nasal aspiration of Aspergillus fumigatus antigen to assess the effect on bronchial hyperresponsiveness, bronchoalveolar lavage and serum IgE. Mice were challenged with Aspergillus or saline intranasally (Monday, Wednesday and Friday for three weeks) and phenotyped twenty-four hours after the last dose. The effect of pretreatment by aminosteroids was used to assess the effect of down-regulating the IL-9 pathway in mice. To determine the bronchoconstrictor response, respiratory system pressure was measured at the trachea and recorded before and during exposure to the drug. Mice were anesthetized and instrumented as previously described. (Kleeberger et al., (1990) Am. J. Physiol. 258, L313–320; Levitt et al., (1995) Clin. Exp. Allergy 25, 61–63; Ewart et al., (1995) J. Appl. Physiol. 79, 560–566). Airway responsiveness was measured to one or more of the following: 5-hydroxytryptamine, acetylcholine, atracurium or a substance-P analogue. A simple and repeatable measure of the change in peak inspiratory pressure following bronchoconstrictor challenge was used which has been termed the Airway Pressure Time Index (APTI). The APTI was assessed by the change in peak respiratory pressure integrated from the time of injection until the peak pressure returns to baseline or plateau.
(§4) Active compounds identified in vitro were tested in vivo for their ability to suppress airway hyperresponsiveness, lung eosinophilia and serum Ig levels using assays described above. […]

The test system of data set [7] is eosinophils. Description: Bronchoalveolar lavage cellular analysis (eosinophilia) in sensitized mice. Type of data set: in vivo, mouse. The following applies: FIG. 16.
Source text: as §3, with “plateau. […]” for “plateau.”

Data set [8] deals with total serum IgG1, IgG2a and IgE. Description: Serum Ig ELISA in sensitized DBA2J mice. Type of data set: in vivo, mouse. As to the method: Samples were centrifuged to separate cells and serum was collected and used to measure total IgG1, IgG2a and IgE levels. Samples not measured immediately were frozen at −20° C.
Serum Igs were measured using an ELISA antibody-sandwich assay. Microtiter plates were coated, 50 μl per well, with rat anti-murine IgG1, IgG2a or IgE antibody (Southern Biotechnology and PharMingen) at a concentration of 2.5 μg/ml in coating buffer of sodium carbonate-sodium bicarbonate with sodium azide. Plates were covered with plastic wrap and incubated at 4° C. for sixteen hours. The plates were washed three times with a wash buffer of 0.05% Tween-20 in phosphate-buffered saline, incubating for five minutes for each wash. Blocking of nonspecific binding sites was accomplished by adding 200 μl per well 5% bovine serum albumin in phosphate-buffered saline, covering with plastic wrap and incubating for two hours at 37° C. After washing three times with wash buffer, duplicate 50 μll test samples were added to the wells. Test samples were assayed after being diluted 1:10, 1:50 and 1:100 with 5% bovine serum albumin in wash buffer. In addition to the test samples, a set of Ig standards (PharMingen) at various liner concentrations in 5% bovine serum albumin in wash buffer, were assayed to generate a standard curve. A blank of no sample or standard was used to zero the plate reader (background). After adding samples and standards, the plate was covered with plastic wrap and incubated for two hours at room temperature. After washing three times with wash buffer, 50 μl of secondary antibody rat anti-murine IgG1, IgG2a or IgE-horseradish peroxidase conjugate was added at a concentration of 250 ng/ml in 5% bovine serum albumin in wash buffer. […] After five to ten minutes the reaction was stopped with 50 μl of 12.5% sulfuric acid and absorbance was measured at 490 nm on a Dynatech® MR5000 plate reader. A standard curve was constructed from the standards with antigen concentration on the x axis (log scale) and absorbance on the y axis (linear scale). […]
Background: ELISA stands for enzyme-linked immunosorbent assay.

In data set [9] the test system is D2 naive mice. Briefly: Bronchial hyperresponsiveness in D2 naive mice (APTI). Type of data set: in vivo, mouse. The following applies: FIG. 14. On the procedure: as §2, §3, §4
Data set [10] can be described thus: Solubility during work-up. Type of data set: physicochemical. The following applies: 10% acetonitrile/water, acidified with TFA. On the procedure: The reductive aminations were accomplished by similar procedures. The sterol (500 mg for, […] for compounds 7 and 8) was dissolved in 2-propanol (25 mL). Ethylenediamine (1 mL) was added to the flask. The 3-oxo sterol and ethylenediamine were allowed to stir at room temperature for approximately four hours. Sodium cyanoborohydride (250 mg for compound 6 and 100 mg for compounds 7 and 8) was dissolved in 2-propanol (2 mL) and acetic acid (1 mL). The sodium cyanoborohydride solution was added to the reaction flask after evolution of gas had almost ceased (approximately five minutes). In all cases the reaction was complete before the first TLC was taken (less than five minutes). The work-up was the same for all analogues, solution was made basic (pH 10–11) by the addition of carbonate buffer. The aqueous layer was repeatedly extracted with chloroform. The chloroform was removed in vacuo and the crude 3-aminosteroid was dissolved in 10% acetonitrile/water, acidified with TFA. The solubility of compound I was very poor. The solutions were passed through a […] Gelman vacu-cap filter. The 3-aminosteroid isomers were separated by reverse phase chromatography on C18 (Dynamax, 300, 8 μM, 21.6 mm ID, 25 cm/L) using a gradient of acetonitrile in water with 0.1% TFA throughout. […]

[11] abbreviates: FIG. 11 and FIG. 12, mitogen-stimulated lymphocytes, read-out: IC50 for suppression of lymphocyte aggregation and proliferation.
[12] abbreviates: DBA2J mice sensitized to antigen, FIG. 15.

Turning to `C[C@@H]1C[C@H]2[C@@H]3CCC4=CC(=O)C=C[C@]4(C)[C@@]3(F)[C@@H](O)C[C@]2(C)[C@@]1(O)C(=O)CO` [dexamethasone], in [1], the “suppression of ACTH levels” value is listed as greater than 100 fold and the “suppression of absolute levels of plasma corticosterone” value is recorded as greater than 450 fold. Moreover, the body weight entry in data set [2] was “weight loss”. Besides, the “spleen (splenic atrophy)” value in data set [2] (FIG. 21) was “splenic atrophy”.

With `COC(=O)CC[C@@H](C)C1CCC2C3C[C@@H](O)[C@H]4C[C@@H](NCCN)CC[C@]4(C)C3CC[C@@]21C` (stereo partly shown) [Compound-A], the minimal effective concentration in data set [3] worked out at 1 µg/mL. In [4] (setting [11]), the IC50 amounted to 0.5 µg/mL (≈ 1.11 µM). In addition, in data set [5], the “expression of IL-9 in mitogen-stimulated lymphocytes” value is “block the expression of IL-9”. Also, the “block of airway hyperresponsiveness” value in data set [6] (BALBc mice, 2.5 mg/kg administered twice per week, FIG. 19) is “able to block airway hyperresponsiveness”. In [6] (setting [12]), the “block of airway hyperresponsiveness” value is recorded as “able to block airway hyperresponsiveness” and the “efficacy compared with dexamethasone” value is recorded as “more efficacious than the commonly used corticosteroid, dexamethasone”. For the same molecule, in [7], the “eosinophilia (eosinophils in bronchoalveolar lavage)” value is “eosinophils were the particular cell type affected”. In addition, the “serum IgG2a (TH1 associated immunoglobulin)” value in data set [8] was “not”. In [8] (FIG. 17), the “total serum IgG1” value is “suppressed”. In addition, in [8] (FIG. 18), the “total serum IgE” value is “suppressed”.

For the molecule `COC(=O)CC[C@@H](C)C1CCC2C3C(CC[C@@]21C)[C@@]1(C)CC[C@H](NCCN)C[C@H]1C[C@H]3O` (stereo partly shown) [Compound-B], in data set [3], the minimal effective concentration turned out to be 10 µg/mL. Moreover, the IC50 in [4] (setting [11]) was 2.5 µg/mL (≈ 5.57 µM). In data set [5], the “expression of IL-9 in mitogen-stimulated lymphocytes” value was “block the expression of IL-9”. Also, in data set [9], the “effective dose compared with Compound-D” value is “effective at a lower dose than Compound-D”. In data set [9] (ip), the “suppression of bronchial hyperresponsiveness” value is on record as “effective in suppressing bronchial hyperresponsiveness”. Moreover, the “effect on plasma corticosterone” value in data set [1] is given as “no significant effect”.

Turning to `C[C@@H](CNC(=O)N1CCCC1)C1CCC2C3CC[C@@H]4C[C@@H](NCCN)CC[C@]4(C)C3CC[C@@]21C` (stereo partly shown) [Compound-I], in data set [4] (tritiated thymidine incorporation, read-out: PBMC Proliferation ASSAY IC50), the IC50 turned out to be 0.23 µg/mL (≈ 0.487 µM). In addition, the solubility result in [10] is recorded as “very poor”.
